Assays:
[1] = test system: mice pain response induced by hot plate; test: Mice pain response induced by hot plate; assay type: in vivo, ICR mice; settings: for Pain threshold: hot plate 55°C
Outline: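 Female ICR mice (20±2 g) dosed intragastrically for 7 consecutive days. Latency to hind-paw licking on a 55±0.5° C hot plate measured at 30, 60, 90 and 120 min after the last dose, with a 60 s cap. Mice with baseline latency <5 s or >30 s, or jumping, excluded.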

[2] = test system: mice writhing caused by acetic acid; test: Mice writhing caused by acetic acid; settings: for Writhing times: 1 h before 0.7% acetic acid ip, within 20 min; for Latent time: time to first writhing; for Inhibition ratio: writhing inhibition
Method: Each compound was prepared into a suspension by 0.5% sodium carboxymethylcellulose respectively, and then set according to the dose, and each administration group was administered intragastrically; the model group was administered intragastrically an equal volume of 0.5% sodium carboxymethylcellulose.
Mice were intraperitoneally injected with acetic acid to cause a large area and more lasting painful stimuli in deep enterocoelia, causing mice to produce writhing responses. After being administered for 1 h, each dose group was intraperitoneally injected with 0.7% acetic acid-normal saline solution (0.1 ml/10 g).
The time (pain latent time) that the mice started to appear writhing after being intraperitoneally injected with acetic acid was recorded.
The writhing response times of each mouse within 20 min were recorded after injecting acetic acid to cause pain, and then, the writhing inhibition ratio of each administration group was calculated.
Writhing inhibition ratio = [(writhing times of the control group -writhing times of the administration group)/writhing times of the control group] × 100%
Experimental data is shown by x±s and subjected to variance analysis by SPSS 15.0 software.

ulcerative colitis mice = test: Mice ulcerative colitis (DSS); assay type: in vivo, BALB/c mice; settings: for Total times of hematochezia within the four periods / Colon length / IL-1 content: DSS mice; for Colon length: four periods; for IL-1 content: serum, ELISA
[3] = test system: irritable bowel syndrome rats; test: Irritable bowel syndrome rats induced by early maternal separation; assay type: in vivo, SD rats; parameters: AWR scoring: scale not given here; settings: for Colon 5-HT / Serum 5-HT / AWR scoring: IBS rats
Method: The newborn SD male rats were separated from the mother rat in lactation period for 3 h every day on the 2nd to the 21st day after the birth of the newborn SD rats, namely, the mother rat in lactation period was taken out of the cage at 8:30 a.m., and then the newborn rats were removed from the initial cage and put to another separate cage, then the cage was transferred to an adjacent room, then the newborn rats were returned to the initial cage 3 h later, namely, at 11:30 such that the newborn rats and the mother rat got together; the newborn rats were weaned on the 22nd day after birth and separated from the initial cage on the 30th day, grouped on the 60th day, and administered, 20 d in total.
Intragastric administration was performed within the administration period once a day with continuous administration for 20 d.
Test indicators: abdominal withdrawal reflex (AWR); test method: rats were fasted 18 h before the experiment and drank water freely, and narcotized with diethyl ether; then an air sac coated with paraffin oil was inserted into the rats’ colorectum for 4.0 cm, and a catheter outside the anus was fixed at the root of the rat tail with an adhesive tape, and connected with an injection syringe and a sphygmomanometer via three links. The rats were put to an organic glass inspection box (20 cmx12 cm×9 cm), after the rats were awake and fully adapted to the environment for 30 min, the experiment was started. 20, 40 and 60 mm Hg of pressure were respectively applied on the rats, and continuous expansion was performed for 20 s each time with a stimulus interval of 4 min; each pressure was performed for 3 times repeatedly for AWR scoring.
At the end of the experiment, the animals were dissected and weighed, and narcotized to take blood, then the content of 5-HT in serum was determined by high performance liquid chromatography. […] slightly with 0.5% sodium carboxymethylcellulose, and then sucked dry with a filter paper, and placed into a cryogenic tube, and preserved at -20° C. for further use, […] chromatography.

[4] = test system: mice with inflammatory pain; test: Pain threshold of mice with inflammatory pain (complete Freund's adjuvant); assay type: in vivo, SD mice; settings: for Pain threshold: complete Freund's adjuvant paw model

In the case of `O=C(Nc1cccc(Cl)c1)C1CCN(C(=O)c2cccc(O)c2)CC1` [MAGLZ-II-11], the “pain thresholds of the thermal-stimulus mice, in words” value ([1]; compared with the model group) is reported as “significantly extend”, the Pain threshold ([1]; high dose 30 mg/kg ig 7 d, 30 min after final administration) is reported as 41.43 ± 5.15 s and the Pain threshold ([1]; high dose 30 mg/kg ig 7 d, 60 min) is reported as 46.16 ± 6.63 s. The Pain threshold ([1]; high dose 30 mg/kg ig 7 d, 90 min) was 47.22 ± 5.98 s, the Pain threshold ([1]; high dose 30 mg/kg ig 7 d, 120 min) was 45.49 ± 6.31 s and the Pain threshold ([1]; low dose 7.5 mg/kg ig 7 d, 30 min after final administration) was 37.92 ± 8.83 s. It also gave a Pain threshold ([1]; low dose 7.5 mg/kg ig 7 d, 60 min) of 44.14 ± 7.56 s, a Pain threshold ([1]; low dose 7.5 mg/kg ig 7 d, 90 min) of 45.93 ± 8.38 s and a Pain threshold ([1]; low dose 7.5 mg/kg ig 7 d, 120 min) of 43.80 ± 6.12 s. For the same compound, the Pain threshold ([1]; middle dose 15 mg/kg ig 7 d, 30 min after final administration) was 40.33 ± 8.25 s, the Pain threshold ([1]; middle dose 15 mg/kg ig 7 d, 60 min) was 44.87 ± 5.67 s and the Pain threshold ([1]; middle dose 15 mg/kg ig 7 d, 90 min) was 46.41 ± 5.36 s. For the same compound, the Pain threshold ([1]; middle dose 15 mg/kg ig 7 d, 120 min) was 43.44 ± 5.91 s, the “latent time, in words” value ([2]; compared with the model group) was “extend” and the “mice writhing times caused by acetic acid, in words” value ([2]; compared with the model group) was “significantly decrease”. The Writhing times ([2]; high dose 30 mg/kg ig) was 13.6±13.1, the Latent time ([2]; high dose 30 mg/kg ig) was 467.8 ± 175.6 s and the Inhibition ratio ([2]; high dose 30 mg/kg ig) was 65.4%. For the same compound, the Writhing times ([2]; low dose 7.5 mg/kg ig) was 23.4±11.7, the Latent time ([2]; low dose 7.5 mg/kg ig) was 379.7 ± 129.3 s and the Inhibition ratio ([2]; low dose 7.5 mg/kg ig) was 40.5%. The Writhing times ([2]; middle dose 15 mg/kg ig) was 17.5±9.6, the Latent time ([2]; middle dose 15 mg/kg ig) was 408.4 ± 128.2 s and the Inhibition ratio ([2]; middle dose 15 mg/kg ig) was 55.5%. For the same compound, the “Total times of hematochezia within the four periods” value (ulcerative colitis mice; high dose 30 mg/kg ig) was 24.80±5.43, the Colon length (ulcerative colitis mice; high dose 30 mg/kg ig) was 7.68±0.75 cm and the IL-1 content (ulcerative colitis mice; high dose 30 mg/kg ig) was 33.83 ± 7.14 pg/mL. For the same compound, the “Total times of hematochezia within the four periods” value (ulcerative colitis mice; low dose 7.5 mg/kg ig) was 32.00±4.94, the Colon length (ulcerative colitis mice; low dose 7.5 mg/kg ig) was 6.88±0.89 cm and the IL-1 content (ulcerative colitis mice; low dose 7.5 mg/kg ig) was 44.57 ± 10.32 pg/mL. The “Total times of hematochezia within the four periods” value (ulcerative colitis mice; middle dose 15 mg/kg ig) was 27.20±5.39, the Colon length (ulcerative colitis mice; middle dose 15 mg/kg ig) was 7.26±0.67 cm and the IL-1 content (ulcerative colitis mice; middle dose 15 mg/kg ig) was 41.40 ± 9.50 pg/mL. For the same compound, the “IL-1 content, in words” value (ulcerative colitis mice; compared with the model group) was “decrease”, the “colon length, in words” value (ulcerative colitis mice; compared with the model group) was “significantly increase” and the “total times of hematochezia, in words” value (ulcerative colitis mice; compared with the model group) was “reduce”. The “Colon 5-HT” value ([3]; high dose 30 mg/kg ig 20 d) was 12.00±2.93^∗∗∗ µg/mg, the “Serum 5-HT” value ([3]; high dose 30 mg/kg ig 20 d) was 23.82±6.34^∗∗∗ µg/ml and the AWR scoring ([3]; high dose 30 mg/kg ig 20 d, 20 mm Hg) was 1.39±0.30^∗∗ ∗. The AWR scoring ([3]; high dose 30 mg/kg ig 20 d, 40 mm Hg) was 1.92±0.33^∗∗∗, the AWR scoring ([3]; high dose 30 mg/kg ig 20 d, 60 mm Hg) was 2.86±0.26^∗∗∗ and the “Colon 5-HT” value ([3]; low dose 7.5 mg/kg ig 20 d) was 16.24±2.34^∗∗ µg/mg. For the same compound, the “Serum 5-HT” value ([3]; low dose 7.5 mg/kg ig 20 d) was 31.75±5.33^∗∗ µg/ml, the AWR scoring ([3]; low dose 7.5 mg/kg ig 20 d, 20 mm Hg) was 2.50±0.38^∗ and the AWR scoring ([3]; low dose 7.5 mg/kg ig 20 d, 40 mm Hg) was 3.00±0.49^∗∗. For the same compound, the AWR scoring ([3]; low dose 7.5 mg/kg ig 20 d, 60 mm Hg) was 3.60±0.22^∗∗, the “Colon 5-HT” value ([3]; middle dose 15 mg/kg ig 20 d) was 14.33±2.10^∗∗∗ µg/mg and the “Serum 5-HT” value ([3]; middle dose 15 mg/kg ig 20 d) was 29.47±4.91^∗∗∗ µg/ml. For the same compound, the AWR scoring ([3]; middle dose 15 mg/kg ig 20 d, 20 mm Hg) was 2.02±0.57^∗∗, the AWR scoring ([3]; middle dose 15 mg/kg ig 20 d, 40 mm Hg) was 2.42±0.41^∗∗∗ and the AWR scoring ([3]; middle dose 15 mg/kg ig 20 d, 60 mm Hg) was 3.03±0.37^∗∗∗. For the same compound, the “5-HT level in colon and serum, in words” value ([3]; compared with the model group) was “significantly decrease”, the “AWR scoring, in words” value ([3]; compared with the model group) was “significantly decrease” and the “pain threshold of the mice with inflammatory pain, in words” value ([4]; compared with the model group) was “significantly extend”. The Pain threshold ([4]; high dose 30 mg/kg ig once per day, 0 d) was 12.88 ± 2.27 s, the Pain threshold ([4]; high dose 30 mg/kg ig once per day, 1 d) was 7.99±0.90^∗∗∗ s and the Pain threshold ([4]; high dose 30 mg/kg ig once per day, 3 d) was 9.88±1.34^∗∗∗ s. The Pain threshold ([4]; high dose 30 mg/kg ig once per day, 7 d) was 11.26±1.82^∗∗∗ s, the Pain threshold ([4]; low dose 7.5 mg/kg ig once per day, 0 d) was 12.94 ± 2.41 s and the Pain threshold ([4]; low dose 7.5 mg/kg ig once per day, 1 d) was 7.55±1.29^∗∗∗ s. The Pain threshold ([4]; low dose 7.5 mg/kg ig once per day, 3 d) was 9.00±0.73^∗∗∗ s, the Pain threshold ([4]; low dose 7.5 mg/kg ig once per day, 7 d) was 10.26±1.08^∗∗∗ s and the Pain threshold ([4]; middle dose 15 mg/kg ig once per day, 0 d) was 12.80 ± 2.27 s. For the same compound, the Pain threshold ([4]; middle dose 15 mg/kg ig once per day, 1 d) was 7.73±1.10^∗∗∗ s, the Pain threshold ([4]; middle dose 15 mg/kg ig once per day, 3 d) was 9.47±0.79^∗∗∗ s and the Pain threshold ([4]; middle dose 15 mg/kg ig once per day, 7 d) was 10.93±1.62^∗∗∗ s.
